Measured values: patent US11415579B2, “Assay for measuring a rate of reaction between a target and a ligand candidate” (Imperial College Innovations Ltd., priority 2016, dated 2022)

Key:
Cdk2(T182C) (C177A) = biological target: T1, Cdk2(T182C) (C177A) (Homo sapiens, UniProt P24941, C177A/T182C); assay: Kinetic thiol consumption assay with Cdk2 mutant T182C; format: binding; set-up: key to Rate enhancement, Cdk2 T182C: rate constant with Cdk2 ÷ rate constant with model thiol (fold); details: additional mutation C177A; for Rate constant with Cdk2 T182C: Protein: Cdk2, cysteine position T182C, in h^-1
T1 construct: poly-histidine; made in house; host or cells: E. coli
In short: (§1)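 5 μM thiol, degassed phosphate pH 8, 2% v/v immobilized TCEP beads; 1 h RT; fluorescence ex 380/em 470 nm; normalized vs DMSO/thiol-only; first-order exponential decay fit → rate constant; Cdk2 k / model-thiol k = rate enhancement per acrylamide.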

Cdk2(C177A, F80C) = biological target: T2, Cdk2(C177A, F80C) (Homo sapiens, UniProt P24941, C177A/F80C); assay: Kinetic thiol consumption assay with Cdk2 mutant F80C, incl. kobs versus concentration (Kd, k2); format: binding; set-up: key to Rate enhancement, Cdk2 F80C: Cdk2 rate constant divided by model-thiol rate constant; details: additional mutation C177A; for Rate constant with Cdk2 F80C: Protein: Cdk2, cysteine position F80C, in h^-1
T2 construct: poly-histidine; made in house; host or cells: E. coli
In short: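 His-tagged Cdk2(C177A/F80C) from E. coli or model thiol, 5 μM in degassed phosphate buffer pH 8 with TCEP beads, reacted with acrylamide ligands; fluorescence (ex/em 380/470 nm) normalized to DMSO control and fitted to first-order decay for kobs. Kd and k2 obtained from hyperbolic fit of kobs versus ligand concentration.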

Cdk2(R122C) (C177A) = biological target: T3, Cdk2(R122C) (C177A) (Homo sapiens, UniProt P24941, C177A/R122C); assay: Kinetic thiol consumption assay with Cdk2 mutant R122C; format: binding; set-up: key to Rate enhancement, Cdk2 R122C: rate constant with Cdk2 ÷ rate constant with model thiol (fold); details: additional mutation C177A; for Rate constant with Cdk2 R122C: Protein: Cdk2, cysteine position R122C, in h-1
T3 construct: poly-histidine; made in house; host or cells: E. coli
In short: as §1

Cdk2(S181C) (C177A) = biological target: T4, Cdk2(S181C) (C177A) (Homo sapiens, UniProt P24941, C177A/S181C); assay: Kinetic thiol consumption assay with Cdk2 mutant S181C; format: binding; set-up: key to Rate enhancement, Cdk2 S181C: rate constant with Cdk2 ÷ rate constant with model thiol (fold); details: additional mutation C177A; for Rate constant with Cdk2 S181C: Protein: Cdk2, cysteine position S181C, in h^-1
T4 construct: poly-histidine; made in house; host or cells: E. coli
In short: as §1

Cdk2[C177A, F80C, K278C] = biological target: T5, Cdk2[C177A, F80C, K278C] (Homo sapiens, UniProt P24941, C177A/F80C/K278C); assay: Kinetic thiol consumption assay with mutant Cdk2 as model thiol; format: binding; set-up: unit not given here; details: 500 μM ligand, 5 μM thiol, phosphate buffer pH 8
T5 construct: poly-histidine; made in house; host or cells: E. coli
In short: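 Model thiol: His-tagged human Cdk2 C177A/F80C/K278C (two engineered surface cysteines), E. coli-expressed, 5 μM in degassed phosphate buffer pH 8 with immobilized TCEP beads (2% v/v). Fluorescence (ex/em 380/470 nm) followed over time at room temperature, normalized to DMSO/thiol control. First-order decay fit gives rate constants.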

[1] = Kinetic thiol consumption assay with model thiol glutathione; format: physicochemical; set-up: Rate constant with glutathione (k(GSH)): unit not given here; details: for Rate constant with glutathione (k(GSH)): 500 μM ligand, 5 μM thiol, phosphate buffer pH 8; for Rate constant with Glutathione: Protein: Glutathione, cysteine position NA, in h-1
In short: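 GSH 5 μM, degassed phosphate buffer pH 8, TCEP beads 2% v/v; acrylamide added; RT, 1 h; fluorescence ex/em 380/470 nm; normalized to DMSO/thiol control; k from first-order exponential decay fit.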

Cdk2(S276C) (C177A) = biological target: T6, Cdk2(S276C) (C177A) (Homo sapiens, UniProt P24941, C177A/S276C); assay: Kinetic thiol consumption assay with Cdk2 mutant S276C; format: binding; set-up: key to Rate enhancement, Cdk2 S276C: rate constant with Cdk2 ÷ rate constant with model thiol (fold); details: additional mutation C177A; for Rate constant with Cdk2 S276C: Protein: Cdk2, cysteine position S276C, in h^-1
T6 construct: poly-histidine; made in house; host or cells: E. coli
In short: as §1

[2] = biological target: T7, human cyclin-dependent kinase 2 (Cdk2) (Homo sapiens, UniProt P24941); assay: Kinetic thiol consumption assay with wild type Cdk2 (C177); format: binding; set-up: key to Rate enhancement, Cdk2 WT: k(Cdk2) divided by k(model thiol); Rate constant with Cdk2 (k(Cdk2)): unit not given here; details: for Rate constant with Cdk2 (k(Cdk2)): 500 μM ligand, 5 μM thiol, phosphate buffer pH 8; for Rate enhancement, Cdk2 WT: no additional mutations; for Rate constant with Cdk2 WT: Protein: Cdk2, cysteine position WT, in h^-1; for k(Cdk2)/k(Cdk2_mut) rate enhancement: model thiol Cdk2[C177A, F80C, K278C]; for k(Cdk2)/k(GSH) rate enhancement: model thiol glutathione
T7 construct: poly-histidine; made in house; host or cells: E. coli
In short: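 His-tagged human Cdk2 (single surface cysteine C177), expressed in E. coli, or a model thiol at 5 μM in degassed phosphate buffer pH 8 was pre-treated with immobilized TCEP beads (2% v/v) before acrylamide addition. Fluorescence (ex/em 380/470 nm) was read after 1 h at room temperature, normalized to DMSO/thiol-only control and plotted versus time.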

Cdk2(H71C) (C177A) = biological target: T8, Cdk2(H71C) (C177A) (Homo sapiens, UniProt P24941, C177A/H71C); assay: Kinetic thiol consumption assay with Cdk2 mutant H71C; format: binding; set-up: key to Rate enhancement, Cdk2 H71C: rate constant with Cdk2 ÷ rate constant with model thiol (fold); details: additional mutation C177A; for Rate constant with Cdk2 H71C: Protein: Cdk2, cysteine position H71C, in h^-1
T8 construct: poly-histidine; made in house; host or cells: E. coli
In short: as §1

Cdk2(N272C) (C177A) = biological target: T9, Cdk2(N272C) (C177A) (Homo sapiens, UniProt P24941, C177A/N272C); assay: Kinetic thiol consumption assay with Cdk2 mutant N272C; format: binding; set-up: key to Rate enhancement, Cdk2 N272: rate constant with Cdk2 ÷ rate constant with model thiol (fold); details: for Rate enhancement, Cdk2 N272: Cdk2 N272, additional mutation C177A; for Rate constant with Cdk2 N272C: Protein: Cdk2, cysteine position N272C, additional mutation C177A, in h^-1
T9 construct: poly-histidine; made in house; host or cells: E. coli
In short: as §1

Compound | Rate enhancement, Cdk2 T182C (Cdk2(T182C) (C177A)) | Rate constant with Cdk2 T182C (Cdk2(T182C) (C177A)) | Rate enhancement, Cdk2 F80C (Cdk2(C177A, F80C)) | Rate constant with Cdk2 F80C (Cdk2(C177A, F80C)) | Rate enhancement, Cdk2 R122C (Cdk2(R122C) (C177A)) | Rate constant with Cdk2 R122C (Cdk2(R122C) (C177A)) | Rate enhancement, Cdk2 S181C (Cdk2(S181C) (C177A)) | Rate constant with Cdk2 S181C (Cdk2(S181C) (C177A)) | Rate constant with Cdk2[C177A, F80C, K278C] (k(Cdk2_mut)) (Cdk2[C177A, F80C, K278C]) | Rate constant with glutathione (k(GSH)) [1] | Rate constant with Glutathione [1] | Rate enhancement, Cdk2 S276C (Cdk2(S276C) (C177A)) | Rate constant with Cdk2 S276C (Cdk2(S276C) (C177A)) | Rate constant with Cdk2 (k(Cdk2)) [2] | Rate enhancement, Cdk2 WT [2] | Rate constant with Cdk2 WT [2] | k(Cdk2)/k(Cdk2_mut) rate enhancement [2] | k(Cdk2)/k(GSH) rate enhancement [2] | Rate enhancement, Cdk2 H71C (Cdk2(H71C) (C177A)) | Rate enhancement, Cdk2 N272 (Cdk2(N272C) (C177A)) | further results
C=CC(=O)N1CCC2(CC1)NC(=O)N(C)C2=O [CA-046] | 0.595 | 0.009705 | 0.1163 | 0.001897 | 0.2397 | 0.00391 | 0.1987 | 0.00324 | 0.00249 | 0.00955 | 0.01631 | 0.7069 | 0.01153 | 0.00343 | 0.2104 | 0.003432 | 1.377 | 0.3593 | 0.07112 | 0.09295 | Rate constant with Cdk2 H71C (Cdk2(H71C) (C177A)): 0.00116; Rate constant with Cdk2 N272C (Cdk2(N272C) (C177A)): 0.001516
C=CC(=O)NC1(C2CC2)CC1 [CA-047] | 1.063 | 0.01308 | 0.1307 | 0.001607 | 0.2628 | 0.003233 | 0.2766 | 0.003402 | 0.00346 | 0.00756 | 0.0123 | 0.5464 | 0.006721 | 0.0056 | 0.4553 | 0.0056 | 1.617 | 0.7407 | 0 | 0.1665 | Rate constant with Cdk2 N272C (Cdk2(N272C) (C177A)): 0.002048
C=CC(=O)N(C)C1CC(OCC)C12CCC2 (stereo not shown) [CA-048] | 2.645 | 0.05001 | 0.8022 | 0.01517 | 0.2023 | 0.003826 | 0.6029 | 0.0114 | 0.00791 | 0.01364 | 0.01891 | 0.779 | 0.01473 | 0.01116 | 0.7118 | 0.01346 | 1.41 | 0.8182 | 0.2331 | 0.5442 | Rate constant with Cdk2 H71C (Cdk2(H71C) (C177A)): 0.004408; Rate constant with Cdk2 N272C (Cdk2(N272C) (C177A)): 0.01029
C=CC(=O)N1C(C(=O)c2ccccc2)C1c1ccccc1 (stereo not shown) [CA-53] | 13.66 | 0.05877 | 2.22 | 0.009547 | 1.018 | 0.004377 | 14.88 | 0.06402 | 0.00547 | 0.00428 | 0.004301 | 1 | 0.004301 | 0.00097 | 0.2251 | 0.000968 | 0.177 | 0.226 | 1.165 | 1.415 | Rate constant with Cdk2 H71C (Cdk2(H71C) (C177A)): 0.005009; Rate constant with Cdk2 N272C (Cdk2(N272C) (C177A)): 0.006086
C=CC(=O)Nc1ccc2c(c1)OC1(CCCC1)O2 [CA-054] | 1.059 | 0.004582 | 1.482 | 0.006411 | 0.4198 | 0.001816 | 0.4697 | 0.002032 | 0.04027 | 0.00434 | 0.004326 | 0.9498 | 0.004109 | 0.00267 | 0.6163 | 0.002666 | 0.0662 | 0.614 | 1.023 | 1.248 | Rate constant with Cdk2 H71C (Cdk2(H71C) (C177A)): 0.004426; Rate constant with Cdk2 N272C (Cdk2(N272C) (C177A)): 0.005397
